Laboratory results: ChEMBL document CHEMBL5260825, “Chemical Constituents of Bryophytes: Structures and Biological Activity” (J Nat Prod, 2018)
Converted amounts (≈) assume the structure as drawn.

How the values were obtained:
[1] = molecular target: T1, Polyunsaturated fatty acid 5-lipoxygenase (Homo sapiens) (UniProt P09917); experiment: Inhibition of ALOX5 (unknown origin) assessed as reduction in calmodulin level
T1 sequence (whole entry): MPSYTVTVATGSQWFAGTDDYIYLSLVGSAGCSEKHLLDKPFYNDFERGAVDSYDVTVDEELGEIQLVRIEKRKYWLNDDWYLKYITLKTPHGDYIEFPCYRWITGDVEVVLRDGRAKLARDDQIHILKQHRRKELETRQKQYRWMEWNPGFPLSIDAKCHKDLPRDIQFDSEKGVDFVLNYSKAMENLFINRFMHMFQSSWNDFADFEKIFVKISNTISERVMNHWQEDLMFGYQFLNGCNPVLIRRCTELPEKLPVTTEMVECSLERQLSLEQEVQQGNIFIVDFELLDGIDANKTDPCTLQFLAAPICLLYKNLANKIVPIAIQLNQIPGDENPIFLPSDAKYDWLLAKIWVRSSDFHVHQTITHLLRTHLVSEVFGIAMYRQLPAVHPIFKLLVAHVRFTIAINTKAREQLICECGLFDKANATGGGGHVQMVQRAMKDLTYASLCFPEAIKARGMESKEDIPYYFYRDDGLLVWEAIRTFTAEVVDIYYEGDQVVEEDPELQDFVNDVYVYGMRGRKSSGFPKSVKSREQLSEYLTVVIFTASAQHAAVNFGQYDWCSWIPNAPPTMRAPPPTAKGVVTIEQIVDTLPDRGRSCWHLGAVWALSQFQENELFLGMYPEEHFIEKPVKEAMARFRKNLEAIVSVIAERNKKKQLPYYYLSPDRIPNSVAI

Homo sapiens = organism: Homo sapiens; experiment: Antagonist activity at vasopressin (unknown origin); settings: filed as antagonist
DNA polymerase beta = DNA polymerase beta (Homo sapiens, UniProt P06746); experiment: Inhibition of DNA polymerase beta (unknown origin)
[2] = molecular target: T1, Polyunsaturated fatty acid 5-lipoxygenase (Homo sapiens); experiment: Inhibition of ALOX5 (unknown origin) at 0.000001 M relative to control; settings: dose 1 µM
[3] = test system: Human immunodeficiency virus 1; experiment: Antiviral activity against HIV-1; type: functional, organism-based
Candida albicans [4] = experiment: Antifungal activity against Candida albicans assessed as inhibition of fungal growth by MTT assay; type: functional
Cyclooxygenase = Cyclooxygenase (Homo sapiens, UniProt P35354+P23219); experiment: Inhibition of COX (unknown origin); type: protein assay
KB = experiment: Antiproliferative activity against human KB cells assessed as cell growth inhibition; type: functional, cell-based
Rattus norvegicus = organism: Rattus norvegicus; experiment: Inhibition of iron-induced lipid peroxidation in rat liver microsomes in presence of NADPH; type: functional, Microsome
[5] = molecular target: Calmodulin-1 (Homo sapiens) (UniProt P0DP23); experiment: Inhibition of calmodulin (unknown origin)
Botrytis cinerea = experiment: Antifungal activity against Botrytis cinerea assessed as inhibition of microbial growth by microtiter plate based analysis; type: functional, organism-based
Pyricularia oryzae = experiment: Antifungal activity against Pyricularia oryzae assessed as inhibition of microbial growth by microtiter plate based analysis; type: functional, organism-based
Zymoseptoria tritici = experiment: Antifungal activity against Zymoseptoria tritici assessed as inhibition of microbial growth by microtiter plate based analysis; type: functional, organism-based
[6] = test system: Trichostrongylus colubriformis; experiment: Anthelmintic activity against third stage larvae of Trichostrongylus colubriformis at 0.6 mg/ml by microscope based analysis relative to control; type: functional
[7] = test system: Trichostrongylus colubriformis; experiment: Anthelmintic activity against third stage larvae of Trichostrongylus colubriformis by microscope based analysis; type: functional, organism-based
Prothrombin = Prothrombin (Homo sapiens, UniProt P00734); experiment: Inhibition of thrombin (unknown origin)
[8] = Antiplatelet activity against arachidonate-induced rabbit platelet assessed as inhibition of platelet aggregation at 100 ug/ml relative to control; type: functional; settings: Oryctolagus cuniculus
[9] = Antiplatelet activity against collagen-induced rabbit platelet assessed as inhibition of platelet aggregation at 100 ug/ml relative to control; type: functional; settings: Oryctolagus cuniculus
[10] = Antiproliferative activity against human KBV cells assessed as cell growth inhibition; type: functional, cell-based
[11] = Antiproliferative activity against human Lu1 cells assessed as cell growth inhibition; type: functional, cell-based
LNCaP = experiment: Antiproliferative activity against human LNCaP cells assessed as cell growth inhibition; type: functional, cell-based
Streptococcus mutans = experiment: Antibacterial activity against Streptococcus mutans assessed as lethal dose; type: functional; settings: read-out: LD50 (the source's name)
ZR-75-1 = experiment: Antiproliferative activity against human ZR-75-1 cells assessed as cell growth inhibition; type: functional, cell-based
A549 = experiment: Antiproliferative activity against human A549 cells assessed as cell growth inhibition; type: functional; settings: read-out: ED50 (the source's name)
RPMI-7951 = experiment: Antiproliferative activity against human RPMI-7951 cells assessed as cell growth inhibition; type: functional; settings: read-out: ED50 (the source's name)
[12] = test system: Peritoneal macrophage cell; experiment: Inhibition of superoxide anion radical release in guinea pig peritoneal macrophages; type: functional, cell-based; settings: Cavia porcellus
[13] = Inhibition of superoxide anion radical release in rabbit polymorphonuclear leucocytes; type: functional, cell-based; settings: Oryctolagus cuniculus, Polymorphonuclear neutrophil
Candida albicans [14] = experiment: Antifungal activity against Candida albicans assessed as inhibition of fungal growth by bioautographic TLC method; type: functional
Cladosporium cucumerinum = experiment: Antifungal activity against Cladosporium cucumerinum assessed as inhibition of microbial growth by bioautographic TLC method; type: functional

CC(C)=CCc1c(CCc2ccccc2)cc(O)c(O)c1O
ID50 [1]: 2 µg/mL (≈ 6.7 µM) | ID50 (Homo sapiens): 27 µg/mL (≈ 90.5 µM)

Oc1cc2cc(c1O)Oc1ccc(cc1)CCc1cccc(O)c1Oc1cccc(c1)CC2O (stereo not drawn)
IC50 (DNA polymerase beta): 14.4 µM | inhibition [2]: 4% | IC50 [3]: 5.3 µg/mL (≈ 11.6 µM)

Oc1cc2cc(c1O)Oc1ccc(cc1)CCc1ccc(O)c(O)c1Oc1cccc(c1)CC2 [MARCHANTIN B]
MID (Candida albicans [4]): 4 µg/mL | IC50 (Cyclooxygenase): 55.9 µM | IC50 (DNA polymerase beta): 14.4 µM | IC50 [3]: 5.3 µg/mL (≈ 11.6 µM) | IC50 (KB): 3.2 µM

Oc1ccc2cc1Oc1ccc(cc1)CCc1cc(O)c(O)c(c1)Oc1cccc(c1)CC2
IC50 (Rattus norvegicus): 0.32 µM

COc1ccc2c(c1)CCc1ccc(cc1)Oc1cc(ccc1O)CCc1ccc-2c(O)c1
inhibition [2]: 4% | ID50 [5]: 20 µg/mL (≈ 45.6 µM)

Oc1ccc2c(c1)CCc1ccc(O)c(c1)-c1cc(cc(Cl)c1O)/C=C(/Cl)c1ccc-2c(O)c1
IC50 (Botrytis cinerea): 7.6 µg/mL | IC50 (Pyricularia oryzae): 3.9 µg/mL | IC50 (Zymoseptoria tritici): 15.9 µg/mL

COc1cccc(CCc2ccc(O)cc2)c1
inhibition at 600 µg/mL [6]: 85% | IC50 [7]: 130 µg/mL (≈ 569 µM)

Oc1cccc(CCc2ccc(Oc3cc(CCc4cccc(O)c4)ccc3O)cc2)c1
IC50 (Prothrombin): 18 µM

C=C(C)[C@H]1CC=C2C(=O)O[C@H]3C=C(C)[C@H](OO)[C@@H]1[C@@H]23
inhibition at 100 µg/mL [8]: 50% | inhibition at 100 µg/mL [9]: 93%

CC(C)=CCC[C@]1(C)CCC[C@]2(C)[C@@H](C=O)C(C=O)=CC[C@@H]12
IC50 [10]: 2.7 µM | IC50 [11]: 5.7 µM | IC50 (LNCaP): 5.7 µM | LC50 (Streptococcus mutans): 8 µg/mL (≈ 26.4 µM) | IC50 (ZR-75-1): 5.7 µM | IC50 (KB): 3.2 µM

COc1cc(OC)c2c3c1-c1c(O)cccc1[C@@H]1Oc4ccccc4[C@@H](C[C@@H]2OC)[C@@H]31
EC50 (A549): 1 µg/mL (≈ 2.4 µM) | EC50 (RPMI-7951): 1 µg/mL (≈ 2.4 µM)

C=C(C=O)[C@@H]1[C@@H]2[C@H](CC[C@@]3(CO3)[C@@H]1C=O)C2(C)C
IC50 [12]: 40 µg/mL (≈ 161 µM) | IC50 [13]: 6 µg/mL (≈ 24.2 µM)

C=C1CC[C@H]2C(=C)CC[C@H]3C(=C)C(=O)O[C@@H]3[C@@H]12 [DEHYDROCOSTUSLACTONE]
MIC (Candida albicans [14]): 5 µg/mL (≈ 21.7 µM) | MIC (Cladosporium cucumerinum): 0.5 µg/mL
